Drawing on US5126336A, “Antibiotic C-3 catechol-substituted cephalosporin compounds, compositions and method of use thereof” (Bristol-Myers Squibb Company, priority 1990, dated 1992), this text covers MIC for two compounds.

Values after ≈ are worked out from the molar mass of the structure shown. A value given as a limit tells only on which side of the number the result lay.

One may read the MIC as the least concentration at which growth counts as inhibited.

Common to all, as to type: cell-based
Assay [1] deals with Gp-Ia: Penicillin(PC)-sensitive S. aureus (5 strains). Description: MIC, two-fold serial agar dilution, Gp-Ia. As to conditions: Staphylococcus aureus, Mueller-Hinton agar, read-out: Geometric mean of MIC. The protocol:
(§1) Minimum inhibitory concentrations (MICs) of the present series of cephalosporins were determined against 32 strains of test organisms by two-fold serial agar dilution method in Mueller-Hinton agar. Geometric means of MICs were calculated against six groups of the test organisms which are classified as follows and summarized in Table 1.
Gp-Ia Penicillin(PC)-sensitive S. aureus (5 strains).

Assay [2] has as its system Gp-Ib: Penicillin(PC)-resistant S. aureus (5). Briefly: MIC, two-fold serial agar dilution, Gp-Ib. To be noted: Staphylococcus aureus, 5 strains, Mueller-Hinton agar, read-out: Geometric mean of MIC. The protocol:
as §1
Gp-Ib Penicillin(PC)-resistant S. aureus (5).
For orientation: In agar dilution the substance is mixed into plates at graded concentrations.

In assay [3] the test system is Gn-II: M.morganii (1), Ent. cloacae (2) and Ser. marcescens (2). Briefly: MIC, two-fold serial agar dilution, Gn-II. As to conditions: Gn-II, 5 strains; Mueller-Hinton agar; read-out: Geometric mean of MIC. The protocol:
as §1
Gn-II M.morganii (1), Ent. cloacae (2) and Ser.

In assay [4] the test system is Gn-Ib: Cephalothin(CET)-resistant E. coli (3) and Kl. pneumoniae (2). Description: MIC, two-fold serial agar dilution, Gn-Ib. To be noted: Escherichia coli, read-out: Geometric mean of MIC, Gn-Ib, 5 strains; Mueller-Hinton agar. The procedure:
as §1
Gn-Ib Cephalothin(CET)-resistant E. coli (3) and Kl.

Assay [5] deals with Gn-Ia: Cephalothin(CET)-sensitive E. coli (2), Kl. pneumoniae (1) and Pr. mirabilis (2). Description: MIC, two-fold serial agar dilution, Gn-Ia. As to conditions: 5 strains, Mueller-Hinton agar, read-out: Geometric mean of MIC. The procedure: as §1
Gn-Ia Cephalothin(CET)-sensitive E. coli (2), Kl.
pneumoniae (1) and Pr. mirabilis (2).

For assay [6], the system named is Gn-III: Ps. aeruginosa (7). Briefly: MIC, two-fold serial agar dilution, Gn-III. As to conditions: Pseudomonas aeruginosa, Gn-III, 7 strains; Mueller-Hinton agar; read-out: Geometric mean of MIC. The procedure: as §1
Gn-III Ps. aeruginosa (7).

The test system of assay [7] is S. aureus Smith. Description: MIC, agar dilution. To be noted: Staphylococcus aureus; S. aureus Smith; Mueller-Hinton agar pH 7.2; 32° C., 18 hr; 10^6 cells/ml; read-out: MIC. The procedure: as §1
(§2) In vivo antibacterial activity was determined against three bacterial infections (S. aureus Smith, E. coli Juhl and P. aeruginosa A9843A) by intramuscular administration to mice just after the bacterial challenge. PD50 values are summarized in Table 3 in comparsion with the MIC values against the corresponding organisms.
(§3) Medium; MuellerHinton agar (pH = 7.2)
(§4) Incubation temperature: 32° C., 18 hr
(§5) Inoculum size; 10^6 cells/ml

For assay [8], the system named is P. aeruginosa A9843A. Briefly: MIC, agar dilution. To be noted: Pseudomonas aeruginosa, A9843A, 18 h, pH 7.2. The procedure:
as §1, §2, §3, §4, §5

Assay [9] concerns E. coli Juhl A15119. Briefly: MIC, agar dilution. As to conditions: Escherichia coli, JUHLA15119; E. coli Juhl A15119; Mueller-Hinton agar pH 7.2; 32° C., 18 hr; 10^6 cells/ml; read-out: MIC. The protocol:
as §1, §2, §3, §4, §5

For assay [10], the system named is M. luteus 1001. Briefly: MIC, agar dilution. To be noted: Micrococcus luteus, Mueller-Hinton agar pH 7.2, 32° C., 18 hr, 10^6 cells/ml. The procedure: as §1, §3, §4, §5
In assay [11] the test system is P. rettgeri IPM-14. Briefly: MIC, agar dilution. To be noted: Providencia rettgeri, IPM14, Mueller-Hinton agar pH 7.2, 32° C., 18 hr, 10^6 cells/ml. The procedure:
as §1, §3, §4, §5

Assay [12] has as its system X. maltophilia GN 12873. Briefly: MIC, agar dilution. To be noted: Stenotrophomonas maltophilia, GN12873, Mueller-Hinton agar pH 7.2, 32° C., 18 hr, 10^6 cells/ml. The procedure: as §1, §3, §4, §5
Assay [13] relates to P. mirabilis IFO-2849. Description: MIC, agar dilution. As to conditions: Proteus mirabilis, IFO2849, Mueller-Hinton agar pH 7.2, 32° C., 18 hr, 10^6 cells/ml. The procedure: as §1, §3, §4, §5
The subject of assay [14] is P. aeruginosa IPM-9. Briefly: MIC, agar dilution. To be noted: Pseudomonas aeruginosa, IPM9, Mueller-Hinton agar pH 7.2, 32° C., 18 hr, 10^6 cells/ml. The protocol:
as §1, §3, §4, §5

Assay [15] concerns P. cepacia No. 651. Description: MIC, agar dilution. As to conditions: Burkholderia cepacia, Mueller-Hinton agar pH 7.2, 32° C., 18 hr, 10^6 cells/ml. The protocol: as §1, §3, §4, §5
The test system of assay [16] is S. aureus 209P. Briefly: MIC, agar dilution. As to conditions: Staphylococcus aureus; S. aureus 209P; Mueller-Hinton agar pH 7.2; 32° C., 18 hr; 10^6 cells/ml; read-out: MIC. The protocol:
as §1, §3, §4, §5

Assay [17] has as its system E. coli 255. Briefly: MIC, agar dilution. As to conditions: Escherichia coli, Mueller-Hinton agar pH 7.2, 32° C., 18 hr, 10^6 cells/ml. The protocol:
as §1, §3, §4, §5

Assay [18] relates to E. faecium A24817. Briefly: MIC, agar dilution. As to conditions: Enterococcus faecium, Mueller-Hinton agar pH 7.2, 32° C., 18 hr, 10^6 cells/ml. The protocol: as §1, §3, §4, §5
The test system of assay [19] is P. aeruginosa A20599. Briefly: MIC, agar dilution. To be noted: Pseudomonas aeruginosa, Mueller-Hinton agar pH 7.2, 32° C., 18 hr, 10^6 cells/ml. The procedure:
as §1, §3, §4, §5

Assay [20] relates to C. terrigena IFO 12685. Description: MIC, agar dilution. To be noted: Mueller-Hinton agar pH 7.2, 32° C., 18 hr, 10^6 cells/ml. The protocol:
as §1, §3, §4, §5

The test system of assay [21] is S. marcescens IPM-16. Description: MIC, agar dilution. To be noted: Serratia marcescens, IPM16, Mueller-Hinton agar pH 7.2, 32° C., 18 hr, 10^6 cells/ml. The protocol: as §1, §3, §4, §5
Assay [22] deals with S. epidermidis 11-1230. Description: MIC, agar dilution. As to conditions: Staphylococcus epidermidis, 111230, Mueller-Hinton agar pH 7.2, 32° C., 18 hr, 10^6 cells/ml. The protocol: as §1, §3, §4, §5
Assay [23] relates to S. marcescens IPM-15. Description: MIC, agar dilution. As to conditions: Serratia marcescens, IPM15, Mueller-Hinton agar pH 7.2, 32° C., 18 hr, 10^6 cells/ml. The protocol: as §1, §3, §4, §5
For assay [24], the system named is K. pneumoniae PCI 602. Briefly: MIC, agar dilution. As to conditions: Klebsiella pneumoniae, PCI602, Mueller-Hinton agar pH 7.2, 32° C., 18 hr, 10^6 cells/ml. The procedure: as §1, §3, §4, §5
Assay [25] concerns P. vulgaris IPM-13. Description: MIC, agar dilution. To be noted: Proteus vulgaris, IPM13, Mueller-Hinton agar pH 7.2, 32° C., 18 hr, 10^6 cells/ml. The procedure:
as §1, §3, §4, §5

The test system of assay [26] is E. faecalis A9808. Description: MIC, agar dilution. To be noted: Enterococcus faecalis, Mueller-Hinton agar pH 7.2, 32° C., 18 hr, 10^6 cells/ml. The protocol:
as §1, §3, §4, §5

For assay [27], the system named is P. aeruginosa IPM-8. Description: MIC, agar dilution. To be noted: Pseudomonas aeruginosa, IPM8, Mueller-Hinton agar pH 7.2, 32° C., 18 hr, 10^6 cells/ml. The procedure: as §1, §3, §4, §5
The subject of assay [28] is X. maltophilia No. 661. Description: MIC, agar dilution. To be noted: Stenotrophomonas maltophilia, Mueller-Hinton agar pH 7.2, 32° C., 18 hr, 10^6 cells/ml. The procedure: as §1, §3, §4, §5
The subject of assay [29] is P. cepacia A21213. Description: MIC, agar dilution. To be noted: Burkholderia cepacia, Mueller-Hinton agar pH 7.2, 32° C., 18 hr, 10^6 cells/ml. The protocol: as §1, §3, §4, §5
Assay [30] concerns P. aeruginosa KKA 19. Description: MIC, agar dilution. To be noted: Pseudomonas aeruginosa, KKA19, Mueller-Hinton agar pH 7.2, 32° C., 18 hr, 10^6 cells/ml. The procedure:
as §1, §3, §4, §5

The subject of assay [31] is B. subtilis PCI 219. Briefly: MIC, agar dilution. As to conditions: Bacillus subtilis, PCI219, Mueller-Hinton agar pH 7.2, 32° C., 18 hr, 10^6 cells/ml. The protocol:
as §1, §3, §4, §5

In assay [32] the test system is M. morgani 1510/9. Briefly: MIC, agar dilution. To be noted: Mueller-Hinton agar pH 7.2, 32° C., 18 hr, 10^6 cells/ml. The procedure: as §1, §3, §4, §5
In assay [33] the test system is S. aureus IPM-24 (MRSA). Description: MIC, agar dilution. As to conditions: Staphylococcus aureus, Mueller-Hinton agar pH 7.2, 32° C., 18 hr, 10^6 cells/ml. The procedure:
as §1, §3, §4, §5

For assay [34], the system named is S. aureus 4-1015 (MRSA). Briefly: MIC, agar dilution. To be noted: Staphylococcus aureus, Mueller-Hinton agar pH 7.2, 32° C., 18 hr, 10^6 cells/ml. The protocol:
as §1, §3, §4, §5

Assay [35] deals with C. freundii GN 7391. Description: MIC, agar dilution. As to conditions: Citrobacter freundii, GN7391, Mueller-Hinton agar pH 7.2, 32° C., 18 hr, 10^6 cells/ml. The protocol:
as §1, §3, §4, §5

Assay [36] concerns M. morgani 1510. Description: MIC, agar dilution. To be noted: Mueller-Hinton agar pH 7.2, 32° C., 18 hr, 10^6 cells/ml. The protocol: as §1, §3, §4, §5
The test system of assay [37] is E. cloacae IPM-12. Description: MIC, agar dilution. To be noted: Enterobacter cloacae, IPM12, Mueller-Hinton agar pH 7.2, 32° C., 18 hr, 10^6 cells/ml. The protocol:
as §1, §3, §4, §5

Consider `C[N+]1(C/C=C/C2=C(C(=O)[O-])N3C(=O)C(NC(=O)/C(=N\OCC(=O)O)c4csc(N)n4)C3SC2)Cc2cc(O)c(O)cc2C1` (stereo not shown) [Ih, 7-[(Z)-2-(2-Aminothiazol-4-yl)-2-carboxymethoxyimino-acetamido]-3-[3-(E)-(5,6-hydroxy-2-methyl-2-isoindolinio)-1-propen-1-yl]-3-cephem-4-carboxylate], for which the MIC in [1] was found to be 7.2 µg/mL (≈ 11.4 µM); in assay [2], 12.5 µg/mL (≈ 19.8 µM); in [3] it was 1.1 µg/mL (≈ 1.74 µM); in assay [4] it was 0.4 µg/mL (≈ 0.634 µM); in assay [5], 0.2 µg/mL (≈ 0.317 µM); in assay [6], 0.49 µg/mL (≈ 0.777 µM).
With `CC(C)(O/N=C(\C(=O)NC1C(=O)N2C(C(=O)[O-])=C(/C=C/C[n+]3cc4cc(O)c(O)cc4cn3)CS[C@H]12)c1csc(N)n1)C(=O)O` (stereo partly shown) [Ii, 7-[(Z)-2-(2-Aminothiazol-4-yl)-2-(1-methyl-1-carboxyethoxy-imino)acetamido]-3-[(E)-3-(6,7-dihydroxyphthalazin-2-io)-1-propen-1-yl]-3-cephem-4-carboxylate], the MIC was found to be 25 µg/mL (≈ 38.1 µM) in [7]; 0.1 µg/mL (≈ 0.153 µM) in assay [8]; 0.2 µg/mL (≈ 0.305 µM) in [9]; 3.1 µg/mL (≈ 4.73 µM) in [10]; 0.1 µg/mL (≈ 0.153 µM) in assay [11]; 100 µg/mL (≈ 153 µM) in assay [12]. Also, the MIC in assay [13] was 0.025 µg/mL (≈ 0.0381 µM); in assay [14], over 100 µg/mL; in assay [15] it was 1.6 µg/mL (≈ 2.44 µM); in assay [16] it was 25 µg/mL (≈ 38.1 µM); in assay [17], 0.013 µg/mL (≈ 0.0198 µM); in assay [18], over 100 µg/mL. The MIC in [19] was 0.2 µg/mL (≈ 0.305 µM); in assay [20], 0.8 µg/mL (≈ 1.22 µM); in assay [21] it was 1.6 µg/mL (≈ 2.44 µM); in assay [22], 25 µg/mL (≈ 38.1 µM); in [23], over 100 µg/mL; in [24], under 0.0063 µg/mL. Besides, the MIC in [25] is 12.5 µg/mL (≈ 19.1 µM); in assay [26], over 100 µg/mL; in [27], 0.2 µg/mL (≈ 0.305 µM); in assay [28], 50 µg/mL (≈ 76.3 µM); in [29], 0.8 µg/mL (≈ 1.22 µM); in assay [30], 0.8 µg/mL (≈ 1.22 µM). Also, the minimum inhibitory concentration (MIC) in assay [31] is 12.5 µg/mL (≈ 19.1 µM); in assay [32], 0.05 µg/mL (≈ 0.0763 µM); in assay [33], over 100 µg/mL; in [34], over 100 µg/mL; in [35], 25 µg/mL (≈ 38.1 µM); in [36] it was 0.8 µg/mL (≈ 1.22 µM). Moreover, it took 0.8 µg/mL (≈ 1.22 µM) to inhibit growth in assay [37] (MIC).
